These results are taken from ChEMBL document CHEMBL1137206, “A nonpeptidic sulfonamide inhibits the p53-mdm2 interaction and activates p53-dependent transcription in mdm2-overexpressing cells” (J Med Chem, 2004).

Each structure is given as a SMILES string.

The target in this assay is Tumour suppressor p53/oncoprotein Mdm2 (Homo sapiens, UniProt P04637+Q00987). Kind of assay: In vitro inhibitory concentration against p53-mdm2 interaction. The format is protein assay.
Tumour suppressor p53/oncoprotein Mdm2, sequence (P04637 whole entry): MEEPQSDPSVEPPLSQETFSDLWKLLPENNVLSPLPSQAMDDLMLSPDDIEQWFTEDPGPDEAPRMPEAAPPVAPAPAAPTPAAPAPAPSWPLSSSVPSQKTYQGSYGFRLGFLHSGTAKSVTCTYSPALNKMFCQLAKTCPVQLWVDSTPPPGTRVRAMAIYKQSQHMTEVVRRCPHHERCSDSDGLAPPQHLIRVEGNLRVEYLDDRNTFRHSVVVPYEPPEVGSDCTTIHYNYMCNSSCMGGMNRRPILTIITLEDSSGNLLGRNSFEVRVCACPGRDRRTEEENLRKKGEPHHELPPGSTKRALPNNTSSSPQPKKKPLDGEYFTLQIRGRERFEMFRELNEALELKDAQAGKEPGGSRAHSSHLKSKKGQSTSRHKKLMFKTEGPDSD
Tumour suppressor p53/oncoprotein Mdm2, sequence (Q00987 whole entry): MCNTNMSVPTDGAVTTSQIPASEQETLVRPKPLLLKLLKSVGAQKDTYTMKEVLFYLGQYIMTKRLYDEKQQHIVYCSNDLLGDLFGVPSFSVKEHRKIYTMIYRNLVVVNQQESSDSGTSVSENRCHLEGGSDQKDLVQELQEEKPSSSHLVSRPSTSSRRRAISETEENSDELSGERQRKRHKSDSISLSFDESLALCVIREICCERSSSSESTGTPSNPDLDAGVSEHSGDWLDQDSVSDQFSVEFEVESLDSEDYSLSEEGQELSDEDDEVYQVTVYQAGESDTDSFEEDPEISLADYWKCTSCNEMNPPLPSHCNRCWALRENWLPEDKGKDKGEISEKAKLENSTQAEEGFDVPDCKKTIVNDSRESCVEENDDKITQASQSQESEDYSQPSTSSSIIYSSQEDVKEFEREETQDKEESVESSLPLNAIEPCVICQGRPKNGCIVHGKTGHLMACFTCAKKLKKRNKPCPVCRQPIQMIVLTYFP

Broadly, the IC50 is the midpoint of a concentration-inhibition curve. Low values mean greater potency, high ones weaker potency. `CC(C)Oc1ccc(C(=O)NS(=O)(=O)c2ccc(NN=C3C(=O)N(c4ccccc4)N(c4ccccc4)C3=O)cc2)cc1` gave an IC50 of 31.8 µM.
